The results in this text go back to US9733262B2, “Method for measuring blood coagulation” (SEKISUI MEDICAL CO., LTD., priority 2009, dated 2017).

Molecules are shown by their SMILES. Structures can show the parent of a compound that is named as a salt.

In this assay the test system is commercially available normal plasma (Coagtrol N). Put plainly: Fibrinogen measurement by thrombin time method: coagulation time and change in scattered light intensity of normal plasma after adding thrombin reagent. To be noted: for coagulation time versus addition amount (FIG. 3): agent added to HEPES buffer (pH 7.5) specimen diluent, buffer alone 4.6 seconds. The format is biochemical. The procedure:
When a fibrinogen concentration in a plasma specimen is measured by a thrombin time method, in general, thrombin is added to plasma to measure a coagulation time, and the concentration is determined from a standard curve prepared using standard solutions having known fibrinogen concentrations. In the procedure, 90 μL of a specimen diluent are added to and mixed with 10 μL of specimen plasma, subsequently 50 μL of a thrombin-containing reagent are added as a blood coagulation activator-containing reagent, and a coagulation time is measured.
In this example, commercially available normal plasma (Coagtrol N, manufactured by Sysmex Corporation) as the plasma specimen, a Coagpia Fbg thrombin reagent (manufactured by Sekisui Medical Co., Ltd.) as the thrombin-containing reagent, and a full-automated blood coagulation time analyzer Coagrex 800 (manufactured by Sysmex Corporation) as a coagulation time measurement apparatus were used. This apparatus employs a scattered light detection method, and change data of scattered light intensity with time can also be obtained along with the coagulation time.
When an HEPES buffer (pH 7.5) was used as the specimen diluent, the commercially available normal plasma coagulated in several seconds (4.6 seconds).
Commercially available normal plasma was measured in the same manner as in Example 1 using the specimen diluent (HEPES buffer, pH 7.5) in which the amount of the blood coagulation time prolonging agent added was adjusted so as to obtain the similar coagulation time. The comparative results of the maximum of a change ΔH in scattered light intensity and of the simultaneous reproducibility of the measurements between in the conventional method and in the present invention were shown in Table 1.
A specimen diluent containing sodium chloride as the blood coagulation time prolonging agent was defined as a conventional method A and a specimen diluent further containing polyethylene glycol (molecular weight: 20000) (hereinafter, referred to as PEG 20000) as an enhancer of a change in light intensity in the conventional method A was defined as a conventional method B, and the specimen diluents were compared with a specimen diluent employing aminoguanidine hydrochloride (present invention) which served as both of the blood coagulation time prolonging agent and the enhancer of a change in light intensity. It should be noted that an HEPES buffer (pH 7.5) was used as a buffer in all of the cases. Further, the concentration of PEG 20000 to be added in the conventional method B was set to 0.1%, because a large amount of PEG 20000 could increase the viscosity of diluent and reduce the accuracy of sampling. The coagulation time of commercially available normal plasma was measured in the same manner as in Example 1 using each specimen diluent. The change of the scattered light intensity in the conventional method B with the addition of PEG 20000 became larger than in the conventional method A without the addition.

The mark [1] stands for this setting: Table 1, agent in specimen diluent (HEPES buffer pH 7.5): NaCl 145 mM, NaBr 110, KBr 105, KCl 135, LiCl 135, guanidine HCl 90, guanidine phosphate 30, guanidine sulfamate 55, aminoguanidine HCl 90, arginine HCl 55, arginine methyl ester 17 mM, single measurement for conventional methods (2)-(5), ten times for the others.
The mark [2] stands for this setting: Table 2, specimen diluent HEPES buffer pH 7.5, NaCl 150 mM (A), NaCl 150 mM + PEG 20000 0.1% (B), aminoguanidine hydrochloride 90 mM, mean of three times measurement.

Under setting [1], `[Cl-].[Li+]` [Lithium chloride] showed a Coagulation time of 10.8 s.

Take `[Br-].[Na+]` [Sodium bromide]: the “coagulation time versus addition amount (FIG. 3)” value was “prolonged in an addition concentration-dependent manner”. Under setting [1], this molecule yielded a Coagulation time of 11.3 s. With `N=C(N)N.O=P(O)(O)O` [Guanidine phosphate], under setting [1], the Coagulation time is 10.4 s. With `N=C(N)N` [Guanidine hydrochloride], the Coagulation time under setting [1] came out at 10.3 s.

Turning to `[Cl-].[K+]` [Potassium chloride], the Coagulation time under setting [1] was found to be 10.8 s. Same read-out and setting: next, `Cl.N=C(N)NCCC[C@H](N)C(=O)O` [Arginine hydrochloride]: 10.3 s. Regarding `[Cl-].[Na+]` [Sodium chloride], the “coagulation time versus addition amount (FIG. 3)” value is reported as “prolonged in an addition concentration-dependent manner”. Moreover, the Coagulation time under setting [1] is 10.7 s. The Coagulation time under setting [2] worked out at 11.6 s. In turn, `N=C(N)N.NS(=O)(=O)O` [Guanidine sulfamate] showed a Coagulation time under setting [1] of 11.2 s.

`[Br-].[K+]` [Potassium bromide] had a Coagulation time under setting [1] of 11.4 s. Same read-out and setting: the figure for `COC(=O)[C@@H](N)CCCNC(=N)N` [Arginine methyl ester] is 11 s.

For the molecule `N=C(N)NN` [Aminoguanidine hydrochloride], the “coagulation time versus addition amount (FIG. 3)” value was “prolonged in an addition concentration-dependent manner”. Further, under setting [1], the Coagulation time worked out at 9.7 s. The Coagulation time under setting [2] was determined as 10.4 s.
